Earlier results, collected in patent US6623768B1, “Pharmaceutically active composition extracted from Ferula hermonis and process of its extraction” (priority 2002, dated 2003).

System: adult female rats

For COc1cc(C(=O)O[C@H]2CC(C)=CC[C@@]3(C)CC[C@@](O)(C(C)C)[C@H]23)ccc1O [jaeschkeanadiol vanillate], the prevention of pregnancy (administered orally on 1 to 7 post coitum, adult female rats) is listed as “prevent pregnancy” and the “prevention of pregnancy after single dose” value (single oral administration of 5 mg per kg on the first day of post coitum, rats) is listed as “prevented pregnancy”.
